The nature of data set [1]: Ozone stability in the presence of acetic and oxalic acid. The settings on record: for increase of the lifetime of the ozone (factor) compared with pure ozone solution: acid approximately 0.01M, ozone approximately 6 ppm. On the procedure:
The following procedure was applied in the analysis of ozone concentration. Magnetic stirrer was used to obtain a homogeneous solution. The ozone concentration, pH and temperature were registered every 30 seconds, until ozone no longer could be detected.
An aqueous ozone solution with a concentration of approximately 6 ppm was tapped directly from the ozone generator into a beaker. The ozone electrode was used to register the changes in concentration. Acetic or oxalic acid was added directly to the solution. The concentration of the acids was approximately 0.01M.

Data set [2] is described as follows: Ozone stability in the presence of different surfactants (ozone electrode). In kind it is physicochemical. Conditions: ozone approximately 6 ppm, surfactant approximately 0.1 mM, approximately the same pH. On the procedure:
Deionised water was used in all aqueous solutions. All experiments were made at room temperature, ˜23° C. The variation of the temperature between the different experiments was relatively small and should not have any significant effect on the outcome. All tests were made at least twice in order to verify the reproducibility. […] Magnetic stirrer was used to obtain a homogeneous solution. […] The concentration of the surfactants was approximately 0.1 mM. […] The solution was filtered to remove the formed precipitate, AgBr.

A short description of data set [3]: Ozone stability in the presence of different concentrations of SDS. In kind it is physicochemical. The settings on record: 200 mM vs 0.1 mM SDS, ozone approximately 6 ppm. As for the experimental part: One of the surfactants, SDS, was tested at two different concentrations: Low concentration (0.1 mM), where the surfactant exists […], and high concentration (200 mM), where the surfactant exists in the form of both micelles and linear (paraffinic) chains. […] However, in order to obtain these states the surfactant solution has to be heated.
Magnetic stirrer was used to obtain a homogeneous solution.
SDS was added directly to the aqueous ozone solution, yielding solutions having concentrations of 0.1 mM and 200 mM with respect to SDS The result is seen in FIG. 4, namely that the higher concentration of SDS increases the lifetime of ozone by a factor 5 compared with the lower concentration.

Data set [4] in a line: Oxidation of organic acids by ozone, 13C NMR and IR before and after ozone treatment. It is filed as physicochemical. The settings on record: 0.1M acid bubbled with ozone for five hours. On the procedure: The aqueous solutions of the acids were analysed using ^13C NMR and IR spectroscopy before and after treatment with ozone.
In order to verify that the organic acids had not been oxidised by ozone an additional test was made 300 ml of an aqueous solution of acid (0.1M, 30×10^−3 mol) was bubbled with ozone for five hours. The gaseous concentration of ozone was ˜100 g/m^3. The airflow was 0 2 l/minute, which gives 1.2 g ozone/h ([…]). The aqueous solutions were analysed using ^13C NMR and IR spectroscopy before and after treatment with ozone. The results are shown in FIGS. 9-12, namely that the peaks in the spectrograms of the pure acid solutions (FIGS. 9 and 11) had not changed their appearance after prolonged treatment with ozone (FIGS. 10 and 12)

Where two headings read alike, the source gives them in different places.

Regarding `CC(=O)O` [Acetic acid, acetic acid], in data set [1], the “effect on ozone stability” value is recorded as “positive effect on ozone stability” and the “increase of the lifetime of the ozone (factor) compared with pure ozone solution” value is reported as 2.

Turning to `CCCCCCCCCCCCO[C@@H]1O[C@H](CO)[C@@H](O[C@H]2O[C@H](CO)[C@@H](O)[C@H](O)[C@H]2O)[C@H](O)[C@H]1O` [dodecyl b-D-maltoside], the “depletion rate of ozone relative to the depletion rate of pure ozone solution” value in data set [2] is “about half”.

`CCCCCCCCCCCCOS(=O)(=O)[O-].[Na+]` [SDS, sodium dodecyl sulphate]: the “increase of the lifetime of ozone (factor), higher concentration compared with the lower concentration” value in data set [3] is listed as 5. Also, the “increase of the lifetime of ozone compared with a pure ozone solution” value in data set [2] (~23° C.) is given as “three to four fold”.

Take `O=C(O)C(=O)O` [oxalic acid]: the “decomposition / reaction of the acid after treatment with ozone (13C NMR, IR)” value in data set [4] is given as “does not react with ozone”. The “effect on ozone stability” value in data set [1] (FIGS. 5 and 6) is on record as “positive effect on ozone stability”. Besides, the “increase of the lifetime of the ozone (factor) compared with pure ozone solution” value in data set [1] was 2.

(Values after patent publication US20030228988A1, “Ozone solutions” (Otre AB, priority 2002, published 2003).)
